Results from patent US10556865B2, “Synergistic herbicidal composition containing certain pyridine or pyrimidine carboxylic acids and certain cereal and rice herbicides” (Dow AgroSciences, LLC, priority 2007, dated 2020).
Read-outs that look alike come from different tables or passages of the source.

How the values were obtained:
[1] = tested on: chickweed (Stellaria media L; STEME); assay: Postemergence herbicidal activity of mixtures in cereal crops (greenhouse, visual injury); format: in vivo; details: for pest or weed control at 17.5 g/ha / pest or weed control at 35 g/ha / pest or weed control at 70 g/ha / pest or weed control at 140 g/ha / pest or weed control at 8.75 g/ha: Stellaria media, post-emergence, read-out: STEME Ob
Outline: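 Greenhouse postemergence; 2–3 true leaves; ~14 h light, ~18/17 °C. Cpd A or B (Me ester, TEA, K salt) ± 2nd cereal herbicide, solo and 2-/3-way mixes, 187 L/ha in acetone/DMSO-based carrier with crop oil concentrate and Triton X-77. Subirrigated; % injury at 20–22 d. Colby expected.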

[2] = tested on: Echinochloa species (ECHSS); assay: Herbicidal mixtures for weed control in transplanted paddy rice (in-water application, visual % injury after 3 weeks); format: in vivo; details: for % Injury ECHOR Ob: ECHOR = Echinocloa oryzoides; for % Injury ECHCG Ob: ECHCG = Echinochloa crus-galli
Outline: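 Mixtures injected into paddy water of flooded pots (transplanted rice, weeds at 2nd–3rd true leaf stage, ~29/26 °C greenhouse); compounds A, C, D dosed as acid equivalent, partners as active ingredient, in acetone/crop oil concentrate carrier. Injury scored visually after 3 weeks versus untreated plants, 0 (none) to 100% (complete kill).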

[3] = Compound A TEA 35 g/ha alone (Table 111)

SMILES: COC(=O)c1nc(-c2ccc(Cl)c(OC)c2F)cc(N)c1Cl [Compound A Methyl, 4-amino-3-chloro-6-(4-chloro-2-fluoro-3-methoxyphenyl)pyridine-2-carboxylic acid methyl ester]
- pest or weed control at 17.5 g/ha ([1]; 17.5 g/ha): 78%
- pest or weed control at 35 g/ha ([1]; 35 g/ha): 90%
- pest or weed control at 70 g/ha ([1]; 70 g/ha): 100%
- % Injury Ob ([2]; ECHCG, 4.38 g/ha alone): 0%
- % Injury Ob ([2]; ECHCG, 17.5 g/ha alone): 0%
- % Injury Ob ([2]; ECHCG, 35 g/ha alone): 25%
- % Injury Ob ([2]; ECHCO, 8.75 g/ha alone): 0%
- % Injury Ob ([2]; ECHCO, 17.5 g/ha alone): 25%
- % Injury Ob ([2]; ECHCO, 35 g/ha alone): 20%
- % Injury ECHOR Ob ([2]; Compound A Methyl 17.5 g/ha alone): 0%
- % Injury ECHOR Ob ([2]; Compound A Methyl 35 g/ha alone): 10%

SMILES: O=C(O)c1c(Cl)ccc2cc(Cl)cnc12 [Quinclorac]
- pest or weed control at 140 g/ha ([1]; 140 g/ha alone): 0%
- % Injury ECHCG Ob ([2]; Quinclorac 70 g/ha alone): 0%
- % Injury ECHCG Ob ([2]; Quinclorac 140 g/ha alone): 0%
- % Injury ECHOR Ob ([2]; Quinclorac 70 g/ha alone): 0%

SMILES: COc1c(Cl)ccc(-c2cc(N)c(Cl)c(C(=O)O)n2)c1F [Compound A TEA, 4-amino-3-chloro-6-(4-chloro-2-fluoro-3-methoxyphenyl)pyridine-2-carboxylic acid]
- STEME Ob ([1]; 70 g/ha alone): 93%
- pest or weed control at 8.75 g/ha ([1]; 8.75 g/ha alone): 80%
- pest or weed control at 8.75 g/ha ([1]; 8.75 g/ha): 80%
- pest or weed control at 17.5 g/ha ([1]; 17.5 g/ha alone): 85%
- pest or weed control at 17.5 g/ha ([1]; 17.5 g/ha): 85%
- pest or weed control at 35 g/ha ([1]; 35 g/ha alone): 88%
- pest or weed control at 70 g/ha ([1]; 70 g/ha alone): 93%
- pest or weed control at 140 g/ha ([1]; 140 g/ha): 65%
- % Injury ECHCG Ob ([2]; Compound A TEA 17.5 g/ha alone): 10%
- % Injury ECHCG Ob ([2]; Compound A TEA 35 g/ha alone): 80%
- % Injury ECHCG Ob [2, 3]: 10%
- % Injury Ob ([2]; ECHCG, 70 g/ha alone): 50%
- % Injury ECHOR Ob ([2]; Compound A TEA 17.5 g/ha alone (Table 113)): 0%
- % Injury ECHOR Ob [2, 3]: 10%
- % Injury ECHOR Ob ([2]; Compound A TEA 35 g/ha alone (Table 113)): 10%
